Source: ChEMBL document CHEMBL4879554, “Data for DCP probe GNE-2256” (2021)
pIC50: −log10 of the molar value. Calls of active or inactive are those of the source. No cut-off for these calls is given here.

Legend:
[1] = R848-induced IL-6 production in human whole blood; format: tissue-based
[2] = target: Activin receptor type-1B (Homo sapiens) (UniProt P36896); assay: ACVR1B Kinase panel; conditions: Compound concentration 1.0 uM
[3] = target: Activin receptor type-2B (Homo sapiens) (UniProt Q13705); assay: ACVR2B Kinase panel; conditions: Compound concentration 1.0 uM
[4] = target: Activin receptor type-1 (Homo sapiens) (UniProt Q04771); assay: ALK2 Kinase panel; conditions: Compound concentration 1.0 uM
[5] = target: Aurora kinase A (Homo sapiens) (UniProt O14965); assay: Aurora_A Kinase panel; conditions: Compound concentration 1.0 uM
[6] = target: Aurora kinase B (Homo sapiens) (UniProt Q96GD4); assay: Aurora_B Kinase panel; conditions: Compound concentration 1.0 uM
[7] = target: Tyrosine-protein kinase receptor UFO (Homo sapiens) (UniProt P30530); assay: Axl Kinase panel; conditions: Compound concentration 1.0 uM
[8] = target: Serine/threonine-protein kinase BRSK1 (Homo sapiens) (UniProt Q8TDC3); assay: BrSK1 Kinase panel; conditions: Compound concentration 1.0 uM
[9] = target: Calcium/calmodulin-dependent protein kinase kinase 1 (Homo sapiens) (UniProt Q8N5S9); assay: CAMKK1 Kinase panel; conditions: Compound concentration 1.0 uM
[10] = target: Cyclin-dependent kinase 2/cyclin A (Homo sapiens) (UniProt P24941+P20248+P78396); assay: CDK2/cyclinA Kinase panel; format: protein-complex assay; conditions: Compound concentration 1.0 uM
[11] = target: Serine/threonine-protein kinase Chk1 (Homo sapiens) (UniProt O14757); assay: CHK1 Kinase panel; conditions: Compound concentration 1.0 uM
[12] = target: Casein kinase I isoform delta (Homo sapiens) (UniProt P48730); assay: CK1_delta Kinase panel; conditions: Compound concentration 1.0 uM
[13] = target: Dual specificity protein kinase CLK2 (Homo sapiens) (UniProt P49760); assay: CLK2 Kinase panel; conditions: Compound concentration 1.0 uM
[14] = target: Macrophage colony-stimulating factor 1 receptor (Homo sapiens) (UniProt P07333); assay: CSF1R Kinase panel; conditions: Compound concentration 1.0 uM
[15] = target: Mitogen-activated protein kinase kinase kinase 8 (Homo sapiens) (UniProt P41279); assay: Cot Kinase panel; conditions: Compound concentration 1.0 uM
[16] = target: Serine/threonine-protein kinase 17A (Homo sapiens) (UniProt Q9UEE5); assay: DRAK1 Kinase panel; conditions: Compound concentration 1.0 uM
[17] = target: Fibroblast growth factor receptor 1 (Homo sapiens) (UniProt P11362); assay: FGFR1 Kinase panel; conditions: Compound concentration 1.0 uM
[18] = target: Tyrosine-protein kinase Fgr (Homo sapiens) (UniProt P09769); assay: Fgr Kinase panel; conditions: Compound concentration 1.0 uM
[19] = target: Vascular endothelial growth factor receptor 3 (Homo sapiens) (UniProt P35916); assay: Flt4 Kinase panel; conditions: Compound concentration 1.0 uM
[20] = target: Glycogen synthase kinase-3 alpha (Homo sapiens) (UniProt P49840); assay: GSK3_alpha Kinase panel; conditions: Compound concentration 1.0 uM
[21] = target: Tyrosine-protein kinase ITK/TSK (Homo sapiens) (UniProt Q08881); assay: ITK Kinase panel; conditions: Compound concentration 1.0 uM
[22] = target: Tyrosine-protein kinase JAK1 (Homo sapiens, UniProt P23458); assay: JAK1 Kinase panel
[23] = target: Tyrosine-protein kinase JAK3 (Homo sapiens) (UniProt P52333); assay: JAK3 Kinase panel; conditions: Compound concentration 1.0 uM
[24] = target: Mitogen-activated protein kinase 8 (Homo sapiens) (UniProt P45983); assay: JNK1_alpha1 Kinase panel; conditions: Compound concentration 1.0 uM
[25] = target: Mitogen-activated protein kinase 10 (Homo sapiens) (UniProt P53779); assay: JNK3 Kinase panel; conditions: Compound concentration 1.0 uM
[26] = target: MAP/microtubule affinity-regulating kinase 3 (Homo sapiens) (UniProt P27448); assay: MARK3 Kinase panel; conditions: Compound concentration 1.0 uM
[27] = target: Dual specificity mitogen-activated protein kinase kinase 1 (Homo sapiens) (UniProt Q02750); assay: MEK1 Kinase panel; conditions: Compound concentration 1.0 uM
[28] = target: Serine/threonine-protein kinase MRCK alpha (Homo sapiens) (UniProt Q5VT25); assay: MRCK_alpha Kinase panel; conditions: Compound concentration 1.0 uM
[29] = target: Ribosomal protein S6 kinase alpha-5 (Homo sapiens) (UniProt O75582); assay: MSK1 Kinase panel; conditions: Compound concentration 1.0 uM
[30] = target: Serine/threonine-protein kinase 4 (Homo sapiens) (UniProt Q13043); assay: MST1 Kinase panel; conditions: Compound concentration 1.0 uM
[31] = target: Serine/threonine-protein kinase Nek1 (Homo sapiens) (UniProt Q96PY6); assay: NEK1 Kinase panel; conditions: Compound concentration 1.0 uM
[32] = target: Protein kinase C eta type (Homo sapiens) (UniProt P24723); assay: PKC_eta Kinase panel; conditions: Compound concentration 1.0 uM
[33] = target: Protein kinase C theta type (Homo sapiens) (UniProt Q04759); assay: PKC_theta Kinase panel; conditions: Compound concentration 1.0 uM
[34] = target: cGMP-dependent protein kinase 1 (Homo sapiens) (UniProt Q13976); assay: PKG1_alpha Kinase panel; conditions: Compound concentration 1.0 uM
[35] = target: Serine/threonine-protein kinase N1 (Homo sapiens) (UniProt Q16512); assay: PRK1 Kinase panel; conditions: Compound concentration 1.0 uM
[36] = target: 5'-AMP-activated protein kinase catalytic subunit alpha-1 (Homo sapiens) (UniProt Q13131); assay: PRKAA1 Kinase panel; conditions: Compound concentration 1.0 uM
[37] = target: Rho-associated protein kinase 2 (Homo sapiens) (UniProt O75116); assay: ROCK2 Kinase panel; conditions: Compound concentration 1.0 uM
[38] = target: Ribosomal protein S6 kinase alpha-2 (Homo sapiens) (UniProt Q15349); assay: RSK3 Kinase panel; conditions: Compound concentration 1.0 uM
[39] = target: Proto-oncogene tyrosine-protein kinase ROS (Homo sapiens) (UniProt P08922); assay: Ros Kinase panel; conditions: Compound concentration 1.0 uM
[40] = target: STE20-like serine/threonine-protein kinase (Homo sapiens) (UniProt Q9H2G2); assay: SLK Kinase panel; conditions: Compound concentration 1.0 uM
[41] = target: SRSF protein kinase 1 (Homo sapiens) (UniProt Q96SB4); assay: SRPK1 Kinase panel; conditions: Compound concentration 1.0 uM
[42] = target: Serine/threonine-protein kinase 33 (Homo sapiens) (UniProt Q9BYT3); assay: STK33 Kinase panel; conditions: Compound concentration 1.0 uM
[43] = target: Tyrosine-protein kinase Srms (Homo sapiens) (UniProt Q9H3Y6); assay: Srm Kinase panel; conditions: Compound concentration 1.0 uM
[44] = target: Activated CDC42 kinase 1 (Homo sapiens) (UniProt Q07912); assay: TNK2 Kinase panel; conditions: Compound concentration 1.0 uM
[45] = target: Wee1-like protein kinase (Homo sapiens) (UniProt P30291); assay: WEE1 Kinase panel; conditions: Compound concentration 1.0 uM
[46] = target: Death-associated protein kinase 3 (Homo sapiens) (UniProt O43293); assay: ZIPK Kinase panel; conditions: Compound concentration 1.0 uM
[47] = target: Serine/threonine-protein kinase mTOR (Homo sapiens) (UniProt P42345); assay: mTOR Kinase panel; conditions: Compound concentration 1.0 uM
[48] = target: 5-hydroxytryptamine receptor 5A (Homo sapiens) (UniProt P47898); conditions: Compound concentration 10.0 uM
[49] = target: D(1B) dopamine receptor (Homo sapiens) (UniProt P21918); conditions: Compound concentration 10.0 uM
[50] = target: Sodium-dependent noradrenaline transporter (Homo sapiens) (UniProt P23975); conditions: Compound concentration 10.0 uM
[51] = target: Histamine H1 receptor (Homo sapiens) (UniProt P35367); conditions: Compound concentration 10.0 uM
[52] = target: Histamine H3 receptor (Homo sapiens) (UniProt Q9Y5N1); conditions: Compound concentration 10.0 uM
[53] = target: Beta-3 adrenergic receptor (Homo sapiens) (UniProt P13945); conditions: Compound concentration 10.0 uM
[54] = target: Alpha-1D adrenergic receptor (Homo sapiens) (UniProt P25100); conditions: Compound concentration 10.0 uM
[55] = target: Sigma non-opioid intracellular receptor 1 (Homo sapiens) (UniProt Q99720); conditions: Compound concentration 10.0 uM

Sequence of Tyrosine-protein kinase JAK1 (P23458 whole entry): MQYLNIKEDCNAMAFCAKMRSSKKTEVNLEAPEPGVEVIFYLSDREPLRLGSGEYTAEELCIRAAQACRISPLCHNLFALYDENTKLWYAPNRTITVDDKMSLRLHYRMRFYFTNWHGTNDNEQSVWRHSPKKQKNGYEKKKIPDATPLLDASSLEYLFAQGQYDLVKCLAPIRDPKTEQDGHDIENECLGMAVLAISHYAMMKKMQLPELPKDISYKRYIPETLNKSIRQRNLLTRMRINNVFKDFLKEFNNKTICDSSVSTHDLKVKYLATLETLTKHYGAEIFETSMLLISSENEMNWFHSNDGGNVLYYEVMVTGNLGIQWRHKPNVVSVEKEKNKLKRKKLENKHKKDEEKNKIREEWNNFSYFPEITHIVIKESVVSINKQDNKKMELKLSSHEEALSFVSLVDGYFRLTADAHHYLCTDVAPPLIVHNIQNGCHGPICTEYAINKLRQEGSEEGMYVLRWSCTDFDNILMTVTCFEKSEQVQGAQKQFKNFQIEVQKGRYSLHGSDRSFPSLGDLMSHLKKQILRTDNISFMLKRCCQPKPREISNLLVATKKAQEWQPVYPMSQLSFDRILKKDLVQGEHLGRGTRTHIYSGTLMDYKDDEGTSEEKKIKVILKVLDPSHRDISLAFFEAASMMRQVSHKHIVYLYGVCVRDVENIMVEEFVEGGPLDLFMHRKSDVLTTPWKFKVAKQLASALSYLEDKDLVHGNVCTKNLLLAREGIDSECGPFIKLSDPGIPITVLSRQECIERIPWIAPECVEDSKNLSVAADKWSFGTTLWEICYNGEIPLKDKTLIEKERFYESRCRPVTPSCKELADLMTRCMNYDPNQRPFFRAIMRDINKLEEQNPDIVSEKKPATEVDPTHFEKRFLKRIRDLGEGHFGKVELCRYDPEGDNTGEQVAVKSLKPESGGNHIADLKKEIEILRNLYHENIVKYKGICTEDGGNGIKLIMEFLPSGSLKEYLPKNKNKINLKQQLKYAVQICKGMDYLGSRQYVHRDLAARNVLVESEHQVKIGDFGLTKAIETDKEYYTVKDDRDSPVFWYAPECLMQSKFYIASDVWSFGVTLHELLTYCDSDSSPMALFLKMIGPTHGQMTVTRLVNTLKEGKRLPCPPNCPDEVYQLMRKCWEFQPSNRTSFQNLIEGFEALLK
Sequence of Sodium-dependent noradrenaline transporter (Homo sapiens) (P23975 whole entry): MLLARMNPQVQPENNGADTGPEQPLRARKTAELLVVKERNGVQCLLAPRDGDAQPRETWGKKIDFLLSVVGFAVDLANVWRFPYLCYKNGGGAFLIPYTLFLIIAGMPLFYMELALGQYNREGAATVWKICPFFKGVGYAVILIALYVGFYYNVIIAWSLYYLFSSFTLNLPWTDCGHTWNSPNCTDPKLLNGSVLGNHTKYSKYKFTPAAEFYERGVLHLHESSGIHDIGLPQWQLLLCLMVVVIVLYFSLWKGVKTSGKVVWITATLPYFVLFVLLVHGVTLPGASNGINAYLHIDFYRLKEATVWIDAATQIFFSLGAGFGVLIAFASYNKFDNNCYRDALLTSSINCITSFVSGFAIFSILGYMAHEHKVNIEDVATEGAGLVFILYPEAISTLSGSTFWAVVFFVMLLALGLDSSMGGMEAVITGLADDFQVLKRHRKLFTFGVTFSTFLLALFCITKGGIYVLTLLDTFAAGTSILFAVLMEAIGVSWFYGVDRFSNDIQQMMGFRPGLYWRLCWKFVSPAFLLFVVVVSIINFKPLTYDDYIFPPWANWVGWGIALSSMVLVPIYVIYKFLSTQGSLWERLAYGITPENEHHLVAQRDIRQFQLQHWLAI
Sequence of Protein kinase C eta type (Homo sapiens) (P24723 whole entry): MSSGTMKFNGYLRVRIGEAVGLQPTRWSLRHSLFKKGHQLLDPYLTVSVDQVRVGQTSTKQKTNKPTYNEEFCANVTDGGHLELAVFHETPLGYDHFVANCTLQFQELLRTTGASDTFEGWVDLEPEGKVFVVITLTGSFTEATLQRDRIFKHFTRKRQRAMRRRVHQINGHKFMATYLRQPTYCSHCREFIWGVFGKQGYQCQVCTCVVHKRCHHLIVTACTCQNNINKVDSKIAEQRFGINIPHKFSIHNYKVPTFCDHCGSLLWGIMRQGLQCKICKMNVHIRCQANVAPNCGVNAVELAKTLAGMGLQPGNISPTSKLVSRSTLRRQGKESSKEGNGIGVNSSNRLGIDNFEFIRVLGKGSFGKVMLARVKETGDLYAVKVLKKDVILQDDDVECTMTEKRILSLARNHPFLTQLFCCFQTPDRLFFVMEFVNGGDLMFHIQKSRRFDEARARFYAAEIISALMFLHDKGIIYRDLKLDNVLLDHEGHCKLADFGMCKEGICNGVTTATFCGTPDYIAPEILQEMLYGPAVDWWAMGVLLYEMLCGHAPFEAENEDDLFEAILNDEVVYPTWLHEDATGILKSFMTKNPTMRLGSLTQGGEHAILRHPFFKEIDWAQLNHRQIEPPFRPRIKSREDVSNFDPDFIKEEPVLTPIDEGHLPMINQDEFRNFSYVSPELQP
Sequence of Tyrosine-protein kinase ITK/TSK (Homo sapiens) (Q08881 whole entry): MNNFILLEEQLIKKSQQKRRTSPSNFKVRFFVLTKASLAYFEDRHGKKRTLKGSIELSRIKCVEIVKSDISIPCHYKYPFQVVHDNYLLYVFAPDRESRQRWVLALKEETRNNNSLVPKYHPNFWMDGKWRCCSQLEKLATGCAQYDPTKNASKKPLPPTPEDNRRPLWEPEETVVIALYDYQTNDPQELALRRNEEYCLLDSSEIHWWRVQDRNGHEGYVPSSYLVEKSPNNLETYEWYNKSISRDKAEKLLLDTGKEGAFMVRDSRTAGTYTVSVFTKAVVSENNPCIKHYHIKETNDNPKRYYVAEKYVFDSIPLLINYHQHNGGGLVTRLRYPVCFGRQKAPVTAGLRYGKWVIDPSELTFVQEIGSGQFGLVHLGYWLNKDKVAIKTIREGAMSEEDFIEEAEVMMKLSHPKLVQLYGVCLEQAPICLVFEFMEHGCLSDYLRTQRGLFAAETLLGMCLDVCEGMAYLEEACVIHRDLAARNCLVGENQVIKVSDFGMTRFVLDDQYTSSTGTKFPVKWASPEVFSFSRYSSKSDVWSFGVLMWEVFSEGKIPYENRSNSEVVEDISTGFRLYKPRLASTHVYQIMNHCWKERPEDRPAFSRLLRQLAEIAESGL
Sequence of Serine/threonine-protein kinase BRSK1 (Homo sapiens) (Q8TDC3 whole entry): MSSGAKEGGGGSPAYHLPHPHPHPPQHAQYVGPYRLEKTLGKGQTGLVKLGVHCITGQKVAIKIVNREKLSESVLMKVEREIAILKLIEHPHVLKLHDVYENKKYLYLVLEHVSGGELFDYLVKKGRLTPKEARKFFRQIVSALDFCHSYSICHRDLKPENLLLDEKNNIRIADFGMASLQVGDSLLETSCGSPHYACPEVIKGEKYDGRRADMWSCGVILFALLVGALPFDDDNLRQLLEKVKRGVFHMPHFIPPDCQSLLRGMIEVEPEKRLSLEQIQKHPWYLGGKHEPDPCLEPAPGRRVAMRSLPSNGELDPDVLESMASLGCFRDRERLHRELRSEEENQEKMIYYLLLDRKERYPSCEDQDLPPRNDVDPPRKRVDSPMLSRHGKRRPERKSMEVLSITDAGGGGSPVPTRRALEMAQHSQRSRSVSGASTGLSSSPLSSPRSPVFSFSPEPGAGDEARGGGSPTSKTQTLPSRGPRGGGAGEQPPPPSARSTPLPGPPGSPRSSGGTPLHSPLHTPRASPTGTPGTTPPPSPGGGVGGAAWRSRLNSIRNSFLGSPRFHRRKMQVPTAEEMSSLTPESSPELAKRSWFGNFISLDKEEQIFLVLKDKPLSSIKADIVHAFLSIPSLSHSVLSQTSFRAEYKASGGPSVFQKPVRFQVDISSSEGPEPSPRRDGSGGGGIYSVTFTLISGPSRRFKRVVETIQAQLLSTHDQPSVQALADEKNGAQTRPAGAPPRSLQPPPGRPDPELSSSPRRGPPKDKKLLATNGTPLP
Sequence of Beta-3 adrenergic receptor (Homo sapiens) (P13945 whole entry, looked up): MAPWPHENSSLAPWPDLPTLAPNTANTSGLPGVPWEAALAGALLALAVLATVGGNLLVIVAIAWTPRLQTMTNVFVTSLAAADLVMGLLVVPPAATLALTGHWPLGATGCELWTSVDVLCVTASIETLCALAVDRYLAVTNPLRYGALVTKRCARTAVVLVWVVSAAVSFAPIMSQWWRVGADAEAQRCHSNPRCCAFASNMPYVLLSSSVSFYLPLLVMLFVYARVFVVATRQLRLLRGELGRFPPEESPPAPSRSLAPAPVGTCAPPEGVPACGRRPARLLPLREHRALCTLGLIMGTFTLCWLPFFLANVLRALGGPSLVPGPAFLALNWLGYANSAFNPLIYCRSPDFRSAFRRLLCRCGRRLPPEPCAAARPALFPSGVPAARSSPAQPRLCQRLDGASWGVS
Sequence of Ribosomal protein S6 kinase alpha-5 (Homo sapiens) (O75582 whole entry, looked up): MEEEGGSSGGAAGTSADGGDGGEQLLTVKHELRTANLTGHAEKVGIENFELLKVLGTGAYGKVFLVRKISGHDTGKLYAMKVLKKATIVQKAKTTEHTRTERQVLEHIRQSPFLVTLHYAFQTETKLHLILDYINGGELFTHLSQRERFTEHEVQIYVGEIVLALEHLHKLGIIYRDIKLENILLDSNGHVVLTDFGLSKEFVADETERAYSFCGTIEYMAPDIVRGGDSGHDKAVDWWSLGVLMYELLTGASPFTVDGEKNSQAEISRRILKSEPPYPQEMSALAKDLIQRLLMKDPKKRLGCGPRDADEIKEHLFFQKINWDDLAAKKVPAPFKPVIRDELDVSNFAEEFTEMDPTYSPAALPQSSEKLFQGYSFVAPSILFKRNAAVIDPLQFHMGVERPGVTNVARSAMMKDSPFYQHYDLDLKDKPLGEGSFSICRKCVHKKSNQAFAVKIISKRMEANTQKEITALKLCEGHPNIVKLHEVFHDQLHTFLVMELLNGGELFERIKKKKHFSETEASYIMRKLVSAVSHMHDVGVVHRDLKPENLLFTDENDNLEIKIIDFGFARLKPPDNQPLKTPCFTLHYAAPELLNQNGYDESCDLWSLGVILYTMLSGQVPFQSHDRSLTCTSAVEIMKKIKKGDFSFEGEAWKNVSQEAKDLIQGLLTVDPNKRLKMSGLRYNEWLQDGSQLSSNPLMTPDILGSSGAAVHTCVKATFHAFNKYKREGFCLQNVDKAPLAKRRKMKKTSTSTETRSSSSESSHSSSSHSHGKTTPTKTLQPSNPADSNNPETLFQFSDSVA

Question: What does the source list for `CC(C)(O)[C@H](F)CN1Cc2cc(NC(=O)c3cnn4cccnc34)c(N3CCOCC3)cc2C1=O`?
Answer: IC50 [1]: 0.19 µM (active); inhibition [2]: -1%; inhibition [3]: 12.5%; inhibition [4]: 8%; inhibition [5]: 20.5%; inhibition [6]: 21.3%; inhibition [7]: 17%; inhibition [8]: 3%; inhibition [9]: 3.5%; inhibition [10]: 3%; inhibition [11]: 3%; inhibition [12]: 1.5%; inhibition [13]: 20.3%; inhibition [14]: 25.3%; inhibition [15]: 3%; inhibition [16]: 11.5%; inhibition [17]: 5.5%; inhibition [18]: 53%; inhibition [19]: 13%; inhibition [20]: 15.5%; inhibition [21]: 21%; pIC50 [22]: 6.55; inhibition ([22]; Compound concentration 1.0 uM): 83.5%; inhibition [23]: 28%; inhibition [24]: -1.5%; inhibition [25]: 10.5%; inhibition [26]: 8.5%; inhibition [27]: 20.5%; inhibition [28]: 1.5%; inhibition [29]: -2%; inhibition [30]: -1%; inhibition [31]: 11%; inhibition [32]: 8%; inhibition [33]: 1%; inhibition [34]: 1%; inhibition [35]: 0.5%; inhibition [36]: 5.5%; inhibition [37]: 6%; inhibition [38]: 9%; inhibition [39]: 38.5%; inhibition [40]: 4%; inhibition [41]: 1.5%; inhibition [42]: 3.5%; inhibition [43]: 16%; inhibition [44]: 37.5%; inhibition [45]: 5.5%; inhibition [46]: 3.5%; inhibition [47]: -0%; inhibition [48]: -0.55%; inhibition [49]: -6.56%; inhibition [50]: 2.12%; inhibition [51]: 17.7%; inhibition [52]: -5.14%; inhibition [53]: 11.2%; inhibition [54]: 6.71%; inhibition [55]: 9.11%
